Data set [1] concerns FL83B cells. Nature of the data set: Cell Titer 96 AQueous One Solution (MTS) cytotoxicity assay. It counts as cell-based, rat. The conditions noted are these: liposomal formulation alone or in combination with DOPE and DOPC as co-lipid. As to the method: (§1) Alternatively, the cytotoxicity of the lipids was measured using the Cell Titer 96® AQueous One Solution Cell Proliferation Assay. The Cell Titer 96® AQueous One Solution Reagent contains a tetrazolium compound [3-(4,5-dimethylthiazol-2-yl)-5-(3-carboxymethoxyphenyl)-2(4-sulfophenyl)-2H-tetrazolium, inner salt; MTS^17] and an electron coupling reagent (phenazine ethosulfate; PES). The cytotoxicity assay was performed in 96 well plates by maintaining the ratio of number of cells to amount of cationic lipid constant as in transfection experiments. MTS was added 24 hours after transfection. Cell Titer 96® AQueous One Solution Reagent (20 ul) was pipetted into each well of the 96-well assay plate containing the samples in 100 μl of culture medium. In case of HeLa cells the plates were incubated for 2 hours, whereas for FL83B cells, plates were incubated for 4 hours at 37° C. in a humidified, 5% CO2 atmosphere. Absorbance was then recorded at 490 nm.
(§2) In a second experiment, FL83B and HeLa cells were plated on 96 well plate 18 hours prior to transfection. Then, liposome was added to each well and incubated for 24 hours. Thereafter, Cell Titer 96® AQueous One Solution Reagent was added and incubated for 4 hours. The MTS tetrazolium compound (Owen's reagent) is bioreduced by viable cells into a colored formazan product that is soluble in tissue culture […]. The absorbance of the formazan was measured at 490 nm with a 96 well plate reader.

Data set [2] deals with HeLa cells. Described as above. The data set is classed as cell-based, human. To be noted: liposomal formulation alone or in combination with DOPE and DOPC as co-lipid. The protocol: as §1, §2
In a further data set the test system is A549 cells. The data set is described as follows: Transfection of pSV-β-gal plasmid, β-galactosidase reporter activity. The data set is classed as cell-based, human. As to the method: (§3) Cationic lipids and the co-lipids in chloroform were dried under a stream of N2 gas and vacuum-desiccated for a minimum of 6 h to remove residual organic solvent. The dried lipid film was hydrated in sterile deionized water at cationic lipid concentration of 1 mM for a minimum of 12 h. Liposomes were vortexed to remove any adhering lipid film and probe sonicated until a clear translucent solution is formed. The pDNA solution was added to the liposomes, mixed properly by pipeting and shaken on a rotary shaker (15-30 mins.) before use.
(§4) Cells were seeded at a density of 20,000 (for HeLa cells), 16,000 (for A-549 cells), 8,000 (for FL83B cells) per well in a 96-well plate 18-24 h before transfection. An amount of 0.30 μg of pDNA was complexed with varying amounts of lipids (to give +/− ratios of 0.3:1, 1:1, 3:1 and 9:1) in plain OPTIMEM (total volume made up to 100 μl) and then shaken on a rotary shaker at room temperature for 20-30 minutes. The complexes were then added to the cells. After 5 h of incubation, 200 μl of complete medium containing 10% FBS in DMEM for HeLa and 10% FBS in F-12K for FL83B and A549 was added to the cells. The medium was changed after 24 h and the reporter gene activity was estimated 48 h after transfection. Cells were washed with PBS (100 μl) and lysed in […] lysis buffer (5× reporter lysis buffer diluted to 1×, working concentration). The β-galactosidase activity per well was estimated by adding 50 μl of 2× substrate solution (1.33 mg/ml of ONPG, 0.2 M sodium phosphate, pH 7.15 and 2 mM magnesium chloride) to the lysate in a 96-well plate. Absorbance of the product ortho-nitrophenol was measured at 420 nm. The absorbance values reported are the average values from two replicate experiments performed in the same plate on the same day. Each transfection experiment was performed three times on three different days to control for variations in transfection efficiency.
(§5) Briefly, the efficacy of various lipid formulations were tested in three cell lines A-549, FL83B and HeLa cells and the transfection efficiencies of the cationic liposomal formulations were compared with a commercially available transfection reagent (e.g., Lipofectamine 2000).

Data set [3] deals with HeLa cells. The data set is described as above. It counts as cell-based, human. As to the method:
as §3, §4, §5

Data set [4] relates to FL83B cells. The description is as above. The data set is classed as cell-based, rat. As to the method:
as §3, §4, §5

The next data set deals with CDK9 expression. The data set is described as follows: In vivo delivery of CDK9 siRNA with liposome by tail vein injection, CDK9 expression in spleen. To be noted: Cy3-labeled CDk9 siRNA (25 μg) and liposome (125 μg), repeated 4 and 8 h later, within the initial 24 h after treatment. Further details: species or system BALB/c mice. As to the method:
Total RNA was extracted from tissues or cultured cells using Trizol (Invitrogen, Carlsbad, Calif.), and real-time RT-PCR for CDK9 and GAPDH mRNA quantification was carried out using 200 ng of total RNA and the QuantiTect SYBR Green RT-PCR Kit (Qiagen, Valencia, Calif.) according to the manufacturer's instructions. The ratio of CDK9 and GAPDH mRNA was calculated and expressed as a group average relative to the control group. The specific probe for detection of CDK9 mRNA levels was designed to the following regions of the CDK9 mRNA ORF, the forward primer 5′ TCGGACCAA AGCCTCACCGTATAA 3′, the reverse primer 5′ […] TTG 3′
Male BALB/c mice, 6-8 weeks of age and weighting 20-22 g, were purchased form the Jackson Laboratory (Bar Harbor, Me.). Synthetic siRNA were delivered in vivo using following method. For each mice 25 μg of siRNA in 100 μl of HEPES Buffered Saline (20 mM HEPES, 150 mM NaCl, pH 7.4) was transferred into a sterile tube. In a separate sterile tube 125 μg of liposome was mixed with 200 μl HEPES Buffered Saline. The siRNA solution was transferred to the tube containing liposome solution and then incubated at room temperature for 20 minutes. 200 μl of the complexes was injected via the tail vein, using a 1-ml syringe and 27-gauge needle. The injection was repeated 4 and 8 h later. Control mice were injected with an equal volume of liposome. At 24 h after the last injection, the mice were sacrificed and tissues were harvested for further analysis. CDK9 expression level was normalized with GAPDH and then compared to those obtained from control animals and shown as percent expression. The data represent the mean value +/− SD of three to five mice in each group.
Briefly, the ability of the new synthesized liposome to deliver siRNA in mice was investigated. BALB/c mice were administrated with complexes of Cy3-labeled CDk9 siRNA (25 μg) and liposome (125 μg) via normal pressure tail vein injection. The injection was repeated 4 and 8 h later. Control mice were administrated with an equal amount of liposome. […]

Data set [5] relates to A-549, FL83B and HeLa cells. Nature of the data set: Transfection of pSV-β-gal plasmid, overall statement without cell line. It counts as cell-based. To be noted: alone without any co-lipids. As to the method:
as §4, with “efficiency. […]” for “efficiency.”

For data set [6], the system named is FL83B cells. Nature of the data set: Cell Titer-Blue cell viability assay, cytotoxicity of liposomes. The data set is classed as cell-based, rat. To be noted: 50 μg/ml, 24 h incubation. As to the method:
The Cell Titer-Blue Cell Viability Assay Kit (Promega, Madison, Wis.) was applied to detect and measure cytotoxicity in FL83B cells according to the manufacturer's instructions. Briefly, […] cells were plated on 96-well plate in F-12K medium (ATCC, Manassas, Va.) with 10% fetal bovine serum at 37° C. in 5% CO2. At 24 h., liposomes were added to each well at various concentrations and incubated for 24 h at 37° C. in 5% CO2. Afterwards, the Cell Titer-Blue Reagent was added to each well at 20 μl/well and incubated for 4 h at 37° C. in 5% CO2. The fluorescent signal was recorded by a fluorescent reader (560/590 nm).
Briefly, in a first experiment, the ability of eukaryotic cells to survive exposure to various lipids at doses of 20 and 50 μg/ml was examined. Fl83B cells were plated on 96-well plate for 24 hours. Typically liposomes were added to well and incubated at 37° C. for 24 hours. Thereafter, Cell Titer-Blue Reagent (resazurin) was added and incubated for 4 hours. Resazurin was used as indicator to measure the metabolic capacity of cells. Viable cells retain the ability to reduce resazurin into resorufin, which is highly fluorescent. […] The fluorescence in each well was measured by fluorescent reader.
All cytotoxicity measurements were performed after 24 h of incubation with new synthesizes liposome without medium changes. […]

[7] abbreviates: alone and in combination with DOPE and DOPC, lipid:DNA charge ratio 9.0:1 to 0.3:1.
[8] abbreviates: in combination with DOPE and DOPC.
The mark [9] stands for this setting: alone or in combination with DOPE and DOPC, lipid:DNA charge ratio 9.0:1 to 0.3:1.0.
[10] abbreviates: lipid:DNA charge ratio 9.0:1 to 0.3:1.0.

As to `CCCCCCCCCCCCCC(=O)OC(COC(=O)CCC(=O)O[C@H]1CC[C@@]2(C)C(=CC[C@H]3[C@@H]4CC[C@H]([C@H](C)CCCC(C)C)[C@@]4(C)CC[C@@H]32)C1)C[N+](C)(C)C.[I-]` (some centres unmarked) [Lipid 7, N,N,N-Trimethyl-N-[2-(tetradecanoyloxy),3-succinyloxy(4-cholesteryloxy)-propyl]ammonium iodide], the “cytotoxicity as compared to a control” value in the data set with FL83B cells [1] and in the data set on HeLa cells [2] was “non-toxic” each time. Besides, the “transfection efficiency compared with Lipofectamine 2000” value in the data set with A549 cells (setting [7]) is on record as “comparable”; in the data set on HeLa cells [3] (setting [7]), “more than one fold less”; with FL83B cells [4] (setting [7]) it was “comparable”. Further, the “CDK9 expression level in the spleen decreased by” value with CDK9 expression is 40%. Also, the “transfection efficiency of lipid alone compared with lipid in combination with DOPE and DOPC” value in data set [5] is “about as efficient”.
Regarding `CCCCCCCCCCCCCC(=O)O[C@H](COC(=O)CCC(=O)O[C@H]1CC[C@@]2(C)C(=CC[C@H]3[C@@H]4CC[C@H]([C@H](C)CCCC(C)C)[C@@]4(C)CC[C@@H]32)C1)C[N+](C)(CCO)CCO.[I-]` [Lipid 9], in the data set with FL83B cells [6], the cell death came out at 12%. Also, the “transfection efficiency compared with Lipofectamine 2000” value with A549 cells (setting [8]) is recorded as “comparable”. Further, the “transfection efficiency, fold less than Lipofectamine 2000” value in the data set on HeLa cells [3] (setting [8]) and in the data set with FL83B cells [4] (setting [8]) was “more than 1 fold” in each case. In addition, the “CDK9 expression level in the spleen decreased by” value in the data set on CDK9 expression came out at 30%.
In the case of `CC(C)CCC[C@@H](C)[C@H]1CC[C@H]2[C@@H]3CC=C4CC(OC(=O)CCC(=O)OCC(O)C[N+](C)(C)C)CC[C@]4(C)[C@H]3CC[C@]12C` (some centres unmarked) [Lipid 12, N,N,N-Trimethyl-N-[2-hydroxy, 3-succinyloxy(4-cholesteryloxy)-propyl]ammonium iodide], the “transfection efficiency compared with Lipofectamine 2000” value with A549 cells (lipid:DNA charge ratio 0.3:1), in the data set on HeLa cells [3] (lipid:DNA charge ratio 0.3:1) and in the data set with FL83B cells [4] (lipid:DNA charge ratio 0.3:1) was “comparable” each time.
For `CC[N+](C)(C)CCNC(=O)OC1CC[C@@]2(C)C(=CC[C@H]3[C@@H]4CC[C@H]([C@H](C)CCCC(C)C)[C@@]4(C)CC[C@@H]32)C1` (some centres unmarked) [Lipid 14], the “transfection efficiency, fold less than Lipofectamine 2000” value in the data set with A549 cells (alone or in combination with DOPE and DOPC, lipid:DNA charge ratios 1:1 and 0.3:1) is “about 1.5 fold”; in the data set with HeLa cells [3] (in combination with DOPE), 2.5 fold; with HeLa cells [3] (lipid alone, charge ratio 9:1 to 3:1) it was “more than 1.5 fold”. The “transfection efficiency compared with Lipofectamine 2000” value in the data set with HeLa cells [3] (in combination with DOPC, lipid:DNA charge ratio 0.3:1) is listed as “almost comparable”; in the data set on FL83B cells [4] (alone, charge ratio 3:1), “comparable”; with FL83B cells [4] (in combination with DOPC), “less efficient”; in the data set with FL83B cells [4] (in combination with DOPE, charge ratio 9:1), “comparable”.
With `CC(C)CCC[C@@H](C)[C@H]1CC[C@H]2[C@@H]3CC=C4C[C@@H](OC(=O)NCC[N+](C)(C)CCCCCCCCCCCO)CC[C@]4(C)[C@H]3CC[C@]12C.[Br-]` [Lipid 16], the “cytotoxicity as compared to a control” value with FL83B cells [1] and in the data set on HeLa cells [2] was “non-toxic” throughout. Further, the “transfection efficiency compared with Lipofectamine 2000” value is “about a little more than one fold” with A549 cells (setting [9]) and “about two fold less” in the data set with FL83B cells [4] (alone or in combination with co-lipids). Further, the “transfection efficiency of lipid alone compared with combination with co-lipids DOPE and DOPC” value in the data set on A549 cells (setting [10]) and in the data set on HeLa cells [3] (setting [10]) was “almost the same” throughout. Further, in the data set on HeLa cells [3] (setting [9]), the “transfection efficiency, fold less active than Lipofectamine 2000” value is reported as “about 1.5 fold”.
